How the values were obtained:
[1] = target: T1, MAO-A (Homo sapiens, UniProt P21397); experiment: Human MAO-A inhibitory assay; assay type: biochemical; settings: read-out: IC50 ± SEM MAO-A
T1 sequence (P21397 1-527): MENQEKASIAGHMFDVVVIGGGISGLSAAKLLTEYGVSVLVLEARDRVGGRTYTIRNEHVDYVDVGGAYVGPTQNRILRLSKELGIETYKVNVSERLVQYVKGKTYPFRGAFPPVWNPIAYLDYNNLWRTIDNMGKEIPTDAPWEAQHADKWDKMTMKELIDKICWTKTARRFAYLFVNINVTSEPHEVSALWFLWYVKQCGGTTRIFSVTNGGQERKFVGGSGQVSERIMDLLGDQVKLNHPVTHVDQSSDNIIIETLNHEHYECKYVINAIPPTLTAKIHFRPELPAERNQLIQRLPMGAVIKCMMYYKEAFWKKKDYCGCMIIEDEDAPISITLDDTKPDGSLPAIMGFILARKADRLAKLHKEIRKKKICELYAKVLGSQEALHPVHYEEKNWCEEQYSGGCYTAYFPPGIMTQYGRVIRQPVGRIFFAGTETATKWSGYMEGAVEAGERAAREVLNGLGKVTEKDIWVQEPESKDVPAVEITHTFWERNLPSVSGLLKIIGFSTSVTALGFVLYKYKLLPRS

[2] = PAMPA-BBB assay
[3] = test system: scopolamine-induced cognitive dysfunction ICR mice; experiment: Morris water maze test, scopolamine-induced cognitive dysfunction; settings: MWM last day, test agent 15 mg/kg i.p. + scopolamine 15 mg/kg i.p., 15 days, n = 8, mean ± SEM
Protocol: The MWM test was performed at the last 5 days including two days of memory and learning training, three days of cognitive assessment. On the fifth day, a probe training trial was performed and analysed. […] However, the dosage of scopolamine was increased from 5 mg/kg to 15 mg/kg to achieve a better modelling effect.
Cognitive and memory assays in vivo
The adult female ICR mice (8-10 weeks old, weight 20-25 g) were obtained from the
Zhejiang Academy of Medical Sciences (Hangzhou, China).
agents were prepared as clear injections, consisting of 10% DMSO, 20%
(2-hydroxypropyl)-β-cyclodextrin and PBS. The mice were trained to find the platform (10 cm
diameter) in the opaque circular pool (120 cm diameter, 60 cm height) filled with water (40 cm,
depth), which was described in detail in our previous study.[1] All mice received at least one
training session daily in four quadrants for four consecutive days before testing of finding the
The mice were randomly divided into four groups: (i) control group (PBS of 20%
were intraperitoneally injected with indicated compounds or solvent 30 min before intraperitoneal
injection with scopolamine or PBS once a day for 15 consecutive days. The Morris water maze
test was performed at the last 5 days.

[4] = test system: PC12 cells; experiment: Intracellular ROS detection (DCFH-DA), Aβ1–42-induced; assay type: cell-based; settings: 8g and Aβ1–42 10 μM, flow cytometry
Protocol: Aβ deposition and peroxidation are also important clinical features of AD. Therefore, we subsequently assessed the antioxidation of compound 8g, using 2′,7′-dichlorofluorescin diacetate (DCFH-DA) to detect intracellular ROS generation on the PC12 cell line derived from neural pheochromocytoma. Based on our previous research, the concentration of 10 μM of compound 8g was chosen in this test. […]
8. Intracellular ROS detection

[5] = pKa determination by spectrophotometric titration; settings: 0.1 M KCl aqueous solution, pH range 2.0–10.5, 25 °C
[6] = target: T2, MAO-B (Homo sapiens, UniProt P27338); experiment: Human MAO-B inhibition assay; assay type: biochemical
T2 sequence (P27338 1-520): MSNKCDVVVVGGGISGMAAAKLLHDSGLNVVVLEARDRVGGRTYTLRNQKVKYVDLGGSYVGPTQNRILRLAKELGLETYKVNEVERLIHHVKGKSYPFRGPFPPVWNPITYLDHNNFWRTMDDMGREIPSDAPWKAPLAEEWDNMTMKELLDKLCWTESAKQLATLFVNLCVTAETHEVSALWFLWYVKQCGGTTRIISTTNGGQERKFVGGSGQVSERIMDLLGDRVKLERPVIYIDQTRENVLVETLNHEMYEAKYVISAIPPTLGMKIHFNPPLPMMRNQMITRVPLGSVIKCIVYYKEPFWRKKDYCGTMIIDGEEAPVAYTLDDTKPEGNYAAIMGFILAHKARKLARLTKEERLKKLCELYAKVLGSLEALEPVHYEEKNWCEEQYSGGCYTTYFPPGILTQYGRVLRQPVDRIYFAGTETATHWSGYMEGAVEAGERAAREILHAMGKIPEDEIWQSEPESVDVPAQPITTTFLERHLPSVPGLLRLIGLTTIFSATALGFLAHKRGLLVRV

[7] = Iron-chelating activity test: affinity constants for Fe3+ and pFe3+

SMILES: Cc1c(O)c(=O)ccn1CCNC(=O)c1ccc(OCc2ccccc2)cc1 [Compound 8g]
- IC50 [1]: 14.6 ± 0.231 µM
- Papp at 6 h, 25 μg/mL ([2]; PAMPA): 4.07 ± 0.44 ×10⁻⁶ cm/s
- Prediction of CNS penetrability ([2]; from Pe in PAMPA-BBB): CNS + (CNS +: Pe (10^–6 cm/s) > 4.0, high BBB permeability)
- Pe ± SEM ([2]; porcine brain lipid, 6 h at 25 °C, eight independent experiments): > 4.0 10^–6 cm/s
- Distance to the target [3]: 2.64 ± 0.52 m
- Entries to the target [3]: 4.12 ± 0.40
- melting point: 246 to 248 °C
- ROS %Gated (percentage of positive cells in the total number of cells) [4]: 33.32%
- ROS Mean (average fluorescence intensity of all cells) [4]: 106.35
- pKa ([5]; KCl (0.1 M)): 3.38
- pKa ([5]; pKa2, KCl (0.1 M)): 9.69
- inhibition at 0.1 µM ([6]; 100 nM, read-out: Inhibitory rate ± SEM (%, 100 nM)): > 50%
- inhibition at 1 µM ([6]; 1 μM, read-out: Inhibitory rate ± SEM (%, 1 μM)): 78.29 ± 0.16%
- SI (selectivity index) = IC50 (MAO-A)/IC50 (MAO-B) ([6]; selectivity for the MAO-B isoform): 213
- IC50 ([6]; ± SEM, read-out: IC50 against MAO-B): 0.0684 ± 0.00605 µM
- Log β2 ([7]; KCl (0.1 M): DMSO = 3:2 (v/v)): 26.04
- Log β3 ([7]; KCl (0.1 M): DMSO = 3:2 (v/v)): 35.65
- Log β1 ([7]; KCl (0.1 M): DMSO = 9:1 (v/v)): 14.60
- pFe^3+ ([7]; pH 7.4, [Fe3+]total = 10^−6 M, [ligand]total = 10^−5 M, calculated from pKa and log β measured in KCl/DMSO): 19.31
